Tested on: people at high risk for vascular disease with either IFG, IGT, or early type 2 diabetes
Experiment: ORIGIN trial: glycemic control (FPG, A1C)
Assay type: in vivo, human
Text: Participants were asked to self-administer daily subcutaneous saline injections and to check their capillary glucose levels during a 10 day run-in period. Adherent participants were then provided with lifestyle advice and randomly allocated to either insulin glargine (Lantus™) or standard approaches to glycaemic control. Participants allocated to insulin glargine who were also taking a thiazolidinedione stopped that medication at the time of randomization; otherwise the insulin glargine was added to their glycemic regimen. These participants were instructed to inject insulin glargine in the evening, starting at 2, 4 or 6 units (depending on their initial FPG) and to increase the dose at least once per week targeting a self-measured FPG level ≦5.3 mmol/l (95 mg/dl) and ≧4 mmol/l (72 mg/dl). […] If participants developed uncontrolled hyperglycemia, investigators were permitted to add rapid-acting insulin. No other glucose-lowering medication could be added or increased. FPG levels were measured in the local laboratory at every visit and the results were regularly reviewed along with the dose of insulin to ensure that insulin was being effectively trirated. People not diagnosed with diabetes by the time of the penultimate study visit down-titrated insulin glargine by 10 units per day and stopped any metformin that was prescribed.
Outcomes and other data were collected at scheduled study visits at 0.5, 1, 2, and 4 months after randomization and every 4 months thereafter. Weight, waist and hip circumference were measured annually. HbA1c levels were assayed in local laboratories at every visit for the first year and then annually in people without diabetes and every 4 months for people with diabetes. A first morning urine collection was sent centrally and assayed for creatinine and albumin at baseline, 2 yrs and study end.
Participants assigned to standard therapy continued their prior oral therapies and were managed according to the investigators' judgement and local guidelines for glycemic control and therapeutic approaches. Investigators were advised not to prescribe insulin for standard participants unless they were on full doses of 2 or more oral agents. If insulin was added glargine was not to be used. Participants assigned to basal insulin glargine who were taking a thiazolidinedione prior to randomization stopped this medication but continued to take other glucose-lowering agents. Insulin glargine (Lantus®, Sanofi) was added to their regimen starting at 2 to 6 units daily, based on fasting glucose levels. Participants were advised to inject the insulin in the evening and to self-titrate the dosage using a simple algorithm supported by the site investigators. Self-measured, plasma-referenced fasting capillary blood glucose tests were done at least twice-weekly to guide titration, with the goal of achieving and maintaining fasting glucose 5.3 mmol/l (≦95 mg/dl). Other oral agents could be continued, reduced, or discontinued as judged appropriate during treatment with insulin glargine. The only oral agent that could be added (if not previously used) was metformin, which the site investigator initiated for individual participants at doses of 500-1000 mg/day if judged necessary to limit the risk of hypoglycemia. The importance of lifestyle management was continuously reinforced in both treatment groups.
In addition to self-measured glucose tests, venous blood for measurement of fasting plasma glucose (FPG) and A1C at local laboratories was collected at intervals during treatment. In the case of A1C, measurements were done at baseline, yearly thereafter, and at the end of treatment for all participants. Measurements of FPG were done annually and at the end of treatment for all participants in the glargine treatment group, and at baseline, after 2 years, and at the end of treatment for those using standard therapy. […]

[1] = fully adjusted logistic regression, glargine vs standard care, p<0.001
[2] = participants with diabetes, 2 years
[3] = participants with diabetes, 5 years
[4] = participants with diabetes, 7 years
[5] = participants without diabetes, 5 years
[6] = without diabetes at entry, throughout randomized treatment, both regimens

(Gly A21) Arg (B31) Arg (B32) human insulin [insulin glargine]
A1c (%), median (interquartile range) (Year 1, baseline 6.4): 5.9 (5.5, 6.4) %
FPG (mM), median (interquartile range) (Year 1, baseline 6.9): 5.2 (4.6, 5.9) mM
A1c (%), median (interquartile range) (Year 2): 6.0 (5.5, 6.5) %
FPG (mM), median (interquartile range) (Year 2): 5.0 (4.4, 5.8) mM
A1c (%), median (interquartile range) (Year 3): 6.0 (5.6, 6.6) %
FPG (mM), median (interquartile range) (Year 3): 5.0 (4.4, 5.7) mM
A1c (%), median (interquartile range) (Year 4): 6.1 (5.7, 6.7) %
FPG (mM), median (interquartile range) (Year 4): 5.1 (4.5, 5.8) mM
A1c (%), median (interquartile range) (Year 5): 6.2 (5.7, 6.8) %
FPG (mM), median (interquartile range) (Year 5): 5.1 (4.5, 6.0) mM
A1c (%), median (interquartile range) (Year 6): 6.3 (5.8, 6.8) %
FPG (mM), median (interquartile range) (Year 6): 5.2 (4.6, 6.1) mM
A1c (%), median (interquartile range) (Year 7): 6.2 (5.8, 7.1) %
FPG (mM), median (interquartile range) (Year 7): 5.2 (4.5, 6.3) mM
increase in the likelihood of maintaining mean A1C below 6.5% for 5 years (allocation to basal insulin glargine vs standard care): 2-3 fold
participants achieving a FPG level ≦5.2 mmol/l (by 1 year, maintained throughout the trial): 50%
participants achieving A1C <6.5% (diabetic subgroup, 1 year, 47% before treatment): 74%
participants achieving A1C <7.0% (diabetic subgroup, 1 year, 66% before treatment): 88%
participants achieving A1C <7.0% (diabetic subgroup, 5 years): 77%
participants achieving A1C <6.5% (diabetic subgroup, after 5 years): 60%
people achieving FPG levels below 5.3 mmol/l (95 mg/dl) (for most of the trial): more than 50%
people achieving FPG levels ≦6.0 mmol/l (108 mg/dl) (for most of the trial): 75%
OR (95% CI), 1-year A1C 6.5% (attainment) [1]: 2.50 (2.29-2.74)
OR (95% CI), 1-year A1C 7.0% (attainment) [1]: 2.735 (2.440-3.067)
OR (95% CI), 5-year mean A1C 6.5% (maintenance) [1]: 2.98
OR (95% CI), 5-year mean A1C 7.0% (maintenance) [1]: 2.408 (2.122-2.732)
OR (95% CI), 5-year mean A1C 6.5% (maintenance) (fully adjusted logistic regression, glargine vs standard care, p<0.001, listed as Glargine): 2.975 (2.671-3.315)
median A1C (inter-quartile range) (participants with diabetes, 1 year, baseline 6.5): 6.0 (5.5-6.5) %
median FPG (inter-quartile range) (participants with diabetes, 1 year, baseline 7.2): 5.2 (4.6-5.9) mmol/l
median A1C (inter-quartile range) [2]: 6.0 (5.6-6.6) %
median FPG (inter-quartile range) [2]: 5.0 (4.4-5.8) mmol/l
median A1C (inter-quartile range) [3]: 6.3 (5.8-6.9) %
median FPG (inter-quartile range) [3]: 5.1 (4.5-6.1) mmol/l
median A1C (inter-quartile range) [4]: 6.3 (5.8-6.9) %
median FPG (inter-quartile range) [4]: 5.3 (4.5-6.4) mmol/l
median A1C (participants without diabetes, 1 year, baseline 5.7): 5.6%
median FPG (inter-quartile range) (participants without diabetes, 1 year, baseline 6.1): 5.0 (4.5-5.5) mmol/l
median FPG (inter-quartile range) (participants without diabetes, 2 years): 4.9 (4.5-5.5) mmol/l
median A1C [5]: 5.8%
median FPG (inter-quartile range) [5]: 5.0 (4.5-5.7) mmol/l
median FPG (inter-quartile range) (participants without diabetes, 7 years): 5.1 (4.5-5.8) mmol/l
participants achieving A1C <6.5% [6]: more than 75%
participants achieving A1C <7.0% [6]: more than 90%

Reference: US20150065421A1, “BASAL INSULIN THERAPY” (SANOFI, priority 2012, published 2015)
